Values quoted from earlier work as cited in publication PMC2817966 (Journal of chemical information and modeling, 2009).

Key:
[1] = test system: Tyr181Cys variant
[2] = test system: WT HIV-1

Compound | activity towards a Y181C variant [1] | potency towards WT HIV-1 [2] | IC50 ([1]; read-out: IC50 against Tyr181Cys variant) | IC50 ([2]; read-out: IC50 against WT HIV)
CC(Sc1nc(N)cc(Cl)n1)c1cc2ccoc2cn1 (single isomer, unassigned; (-)) [PNU142721, (-)-6-Chloro-2-[(1-furo[2,3-c]pyridin-5-ylethyl)thio]-4-pyrimidinamine] | 1 µM | 1 nM | – | –
Cc1cc(C)cc(Oc2c(CSCc3ccco3)c(C)[nH]c(=O)c2I)c1 [Compound R221239] | – | – | 5 nM | 2 nM
